Data on three compounds can be found in patent US5430154A, “2-(4-piperidinyl)-1H-pyrido[4,3-b]-indol-1-ones and related compounds” (Hoechst-Roussel Pharmaceuticals Inc., priority 1993, dated 1995).

Assay [1] has as its system apomorphine-induced stereotypy. Kind of assay: antagonism of apomorphine-induced stereotypy. The format is in vivo, male Wistar rats. The settings on record: apomorphine 1.5 mg/kg s.c., rats. The method, then: Antagonism of apomorphine-induced stereotypy is a property of many antipsychotics. […] Antagonism of apomorphine-induced stereotypy of the present 2-(4-piperidinyl)-1H-pyrido[4,3-b]indol-1-ones is determined by methods similar to those described by N. E. Anden, et al., J. Pharma.
Drugs are prepared using distilled water and, if insoluble, a suitable surfactant is added. The route of administration may be varied and the dosage volume is 10 ml/kg. For a primary screen, a group size of six is used. Drug is administered one hour prior to scoring and the animals are placed in individual clear plastic cages (24×14×13 cm). The control group receives vehicle. Apomorphine hydrochloride solution is prepared at a concentration of 1.5 mg/10 ml in a 0.03% ascorbic acid stock solution (30 mg of ascorbic acid in 100 ml of 1% saline) to increase the stability of the apomorphine hydrochloride while in solution. […] Fifty minutes after drug dosing, stereotypic behavior is noted. Stereotypic activity is defined as sniffing, licking or chewing behavior that occurs in a repetitive manner and is rated as follows: Constant sniffing, licking or chewing without interruption; the animal is considered protected if this behavior is interrupted.
The percent effectiveness of a drug is determined by the number of animals protected in each group.
A dose-response is run in the same manner as a primary screen except that a group size of 10 is used and the animals are dosed in a randomized manner. One group receives vehicle. ED50 for stereotypy are calculated by means of probit analysis.

Assay [2] deals with apomorphine-induced climbing. Put plainly: climbing mice assay (antagonism of apomorphine-induced climbing; antipsychotic activity). The format is in vivo, CK-1 male mice. The conditions noted are these: Mus musculus, ip, read-out: Antipsychotic Activity ED50. The method, then: The subject CK-1 male mice (23-27 grams) are group-housed under standard laboratory conditions. The mice are individually placed in wire mesh stick cages (4"×4" by 10") and are allowed one hour for adaptation and exploration of the new environment. […] For evaluation of climbing, 3 readings are taken at 10, 20 and 30 minutes after apomorphine administration according to the following scale: Mice consistently climbing before the injection of apormorphine are discarded. With full-developed apomorphine climbing, the animals are hanging onto the cage wails, rather motionless, over longer periods of time. By contrast, climbs due to mere motor stimulation usually only last a few seconds. The climbing scores are individually totaled (maximal score; 6 per mouse over 3 readings) and the total score of the control group (vehicle intraperitioneally-apomorphine subcutaneously) is set to 100%.

[3] abbreviates: 30 min before apomorphine 1.5 mg/kg s.c., mice, linear regression.

Like-named read-outs stand apart in the source and are kept apart here.

`O=C(CCCN1CCC(O)(c2ccc(Cl)cc2)CC1)c1ccc(F)cc1` [haloperidol]: the “% Inhibition of Apomorphine-Induced Stereotypy” value (from here on “% Inhibition”) in assay [1] (dose 0.2 mg/kg ip) was determined as 50%. In addition, the ED50 in assay [2] was 0.14 mg/kg.

For the compound `Cl.Cn1c2c(c3ccccc31)C(=O)N(C1CCN(Cc3ccccc3)CC1)CC2` [5-Methyl-2-[1-(phenylmethyl)-4-piperidinyl]-2,3,4,5-tetrahydro-1H-pyrido[4,3-b]-indole-1-one hydrochloride], the “% Inhibition” value in assay [1] (dose 24 mg/kg ip) stood at 50%. Moreover, in assay [2] (setting [3]), the ED50 stood at 4.6 mg/kg.

On to `CSc1ccc2c(c1)N(CCC1CCCCN1C)c1ccccc1S2` (stereo not drawn) [thioridazine], for which the “% Inhibition” value in assay [1] (dose 38 mg/kg ip) worked out at 50%. For the same compound, the ED50 in assay [2] (setting [3]) turned out to be 3.6 mg/kg.

Usually ED50 stands for the midpoint of the dose-response relation.
